Entries after “also recorded” stand apart in the source; their conditions may differ. Activity calls are given as the source filed them. How the calls were made is not given here.
System: CCRIS mutagenicity, Ames/micronucleus/aberration tests
Assay: CCRIS mutagenicity studies
[1] = Test System: AMES SALMONELLA TYPHIMURIUM, Strain/Indicator: TA100, Metabolic Activation: NONE, Method: PREINCUBATION

O=C1CCc2ccccc2O1
mutagenic call (Test System: AMES SALMONELLA TYPHIMURIUM, Strain/Indicator: TA98, Metabolic Activation: HAMSTER, LIVER, S-9, AROCLOR 1254 (10%), Method: PREINCUBATION): inactive; negative
mutagenic call (Test System: AMES SALMONELLA TYPHIMURIUM, Strain/Indicator: TA98, Metabolic Activation: HAMSTER, LIVER, S-9, AROCLOR 1254, Method: PREINCUBATION): inactive; negative
mutagenic call (Test System: AMES SALMONELLA TYPHIMURIUM, Strain/Indicator: TA98, Metabolic Activation: NONE, Method: PREINCUBATION): inactive; negative
mutagenic call (Test System: AMES SALMONELLA TYPHIMURIUM, Strain/Indicator: TA98, Metabolic Activation: RAT, LIVER, S-9, AROCLOR 1254 (10%), Method: PREINCUBATION): inactive; negative
mutagenic call (Test System: AMES SALMONELLA TYPHIMURIUM, Strain/Indicator: TA98, Metabolic Activation: RAT, LIVER, S-9, AROCLOR 1254, Method: PREINCUBATION): inactive; negative
mutagenic call (Test System: AMES SALMONELLA TYPHIMURIUM, Strain/Indicator: TA100, Metabolic Activation: HAMSTER, LIVER, S-9, AROCLOR 1254 (10%), Method: PREINCUBATION): inactive; negative
mutagenic call (Test System: AMES SALMONELLA TYPHIMURIUM, Strain/Indicator: TA100, Metabolic Activation: HAMSTER, LIVER, S-9, AROCLOR 1254, Method: PREINCUBATION): inactive; negative
mutagenic call [1]: inactive; negative
mutagenic call (Test System: AMES SALMONELLA TYPHIMURIUM, Strain/Indicator: TA100, Metabolic Activation: RAT, LIVER, S-9, AROCLOR 1254 (10%), Method: PREINCUBATION): inactive; negative
mutagenic call (Test System: AMES SALMONELLA TYPHIMURIUM, Strain/Indicator: TA100, Metabolic Activation: RAT, LIVER, S-9, AROCLOR 1254, Method: PREINCUBATION): inactive; negative
mutagenic call (Test System: AMES SALMONELLA TYPHIMURIUM, Strain/Indicator: TA1535, Metabolic Activation: HAMSTER, LIVER, S-9, AROCLOR 1254 (10%), Method: PREINCUBATION): inactive; negative
mutagenic call (Test System: AMES SALMONELLA TYPHIMURIUM, Strain/Indicator: TA1535, Metabolic Activation: HAMSTER, LIVER, S-9, AROCLOR 1254, Method: PREINCUBATION): inactive; negative
mutagenic call (Test System: AMES SALMONELLA TYPHIMURIUM, Strain/Indicator: TA1535, Metabolic Activation: NONE, Method: PREINCUBATION): inactive; negative
mutagenic call (Test System: AMES SALMONELLA TYPHIMURIUM, Strain/Indicator: TA1535, Metabolic Activation: RAT, LIVER, S-9, AROCLOR 1254 (10%), Method: PREINCUBATION): inactive; negative
mutagenic call (Test System: AMES SALMONELLA TYPHIMURIUM, Strain/Indicator: TA1535, Metabolic Activation: RAT, LIVER, S-9, AROCLOR 1254, Method: PREINCUBATION): inactive; negative
mutagenic call (Test System: AMES SALMONELLA TYPHIMURIUM, Strain/Indicator: TA1537, Metabolic Activation: HAMSTER, LIVER, S-9, AROCLOR 1254 (10%), Method: PREINCUBATION): inactive; negative
mutagenic call (Test System: AMES SALMONELLA TYPHIMURIUM, Strain/Indicator: TA1537, Metabolic Activation: HAMSTER, LIVER, S-9, AROCLOR 1254, Method: PREINCUBATION): inactive; negative
mutagenic call (Test System: AMES SALMONELLA TYPHIMURIUM, Strain/Indicator: TA1537, Metabolic Activation: NONE, Method: PREINCUBATION): inactive; negative
mutagenic call (Test System: AMES SALMONELLA TYPHIMURIUM, Strain/Indicator: TA1537, Metabolic Activation: RAT, LIVER, S-9, AROCLOR 1254 (10%), Method: PREINCUBATION): inactive; negative
mutagenic call (Test System: AMES SALMONELLA TYPHIMURIUM, Strain/Indicator: TA1537, Metabolic Activation: RAT, LIVER, S-9, AROCLOR 1254, Method: PREINCUBATION): inactive; negative

Cc1ccc(Cl)cc1N
mutagenic call (End Point: IN VITRO CHROMOSOMAL ABERRATIONS, Test System: CHINESE HAMSTER OVARY CELLS, Metabolic Activation: NONE): inactive; negative
mutagenic call (End Point: IN VITRO CHROMOSOMAL ABERRATIONS, Test System: CHINESE HAMSTER OVARY CELLS, Metabolic Activation: RAT, LIVER, S-9, AROCLOR 1254): inactive; negative
mutagenic call (Test System: UDS RODENT HEPATOCYTES, Strain/Indicator: THY INCORP (NON-S-PHASE), Metabolic Activation: NONE, Method: AUTORADIOGRAPHY): inactive; negative

O.O.O.O.O.O.[Cl-].[Cl-].[Co+2]
mutagenic call (End Point: IN VIVO CHROMOSOMAL ABERRATIONS, Test System: BONE MARROW CELLS, Species: MOUSE, Strain/Sex: SWISS ALBINO/MALE, Route: ORAL): active; positive (structural and ploidy changes)
mutagenic call (Test System: CHINESE HAMSTER V-79, Strain/Indicator: SP5 V-79 (HPRT)/6-THIOGUANINE, Metabolic Activation: NONE, Method: STANDARD PLATE): inactive; negative
mutagenic call (Test System: CHINESE HAMSTER V-79, Strain/Indicator: SPD8 V-79 (HPRT)/6-THIOGUANINE, Metabolic Activation: NONE, Method: STANDARD PLATE): active; positive

O=C1CC(=C(Cl)Cl)C(=O)N1
mutagenic call (Test System: AMES SALMONELLA TYPHIMURIUM, Strain/Indicator: TA100, Metabolic Activation: NONE, Method: STANDARD PLATE): active; positive

Cc1ccccc1O
mutagenic call (Test System: Ames Salmonella typhimurium, Strain/Indicator: TA98, Metabolic Activation: Hamster, Liver, S-9, Aroclor 1254 (10%), Method: Preincubation): inactive; negative
mutagenic call (Test System: Ames Salmonella typhimurium, Strain/Indicator: TA98, Metabolic Activation: None, Method: Preincubation): inactive; negative
mutagenic call (Test System: Ames Salmonella typhimurium, Strain/Indicator: TA98, Metabolic Activation: Rat, Liver, S-9, Aroclor 1254 (10%), Method: Preincubation): inactive; negative
mutagenic call (Test System: Ames Salmonella typhimurium, Strain/Indicator: TA100, Metabolic Activation: Hamster, Liver, S-9, Aroclor 1254 (10%), Method: Preincubation): inactive; negative
mutagenic call (Test System: Ames Salmonella typhimurium, Strain/Indicator: TA100, Metabolic Activation: None, Method: Preincubation): inactive; negative
mutagenic call (Test System: Ames Salmonella typhimurium, Strain/Indicator: TA100, Metabolic Activation: Rat, Liver, S-9, Aroclor 1254 (10%), Method: Preincubation): inactive; negative
mutagenic call (Test System: Ames Salmonella typhimurium, Strain/Indicator: TA1535, Metabolic Activation: Hamster, Liver, S-9, Aroclor 1254 (10%), Method: Preincubation): inactive; negative
mutagenic call (Test System: Ames Salmonella typhimurium, Strain/Indicator: TA1535, Metabolic Activation: None, Method: Preincubation): inactive; negative
mutagenic call (Test System: Ames Salmonella typhimurium, Strain/Indicator: TA1535, Metabolic Activation: Rat, Liver, S-9, Aroclor 1254 (10%), Method: Preincubation): inactive; negative
mutagenic call (Test System: Ames Salmonella typhimurium, Strain/Indicator: TA1537, Metabolic Activation: Hamster, Liver, S-9, Aroclor 1254 (10%), Method: Preincubation): inactive; negative
mutagenic call (Test System: Ames Salmonella typhimurium, Strain/Indicator: TA1537, Metabolic Activation: None, Method: Preincubation): inactive; negative
mutagenic call (Test System: Ames Salmonella typhimurium, Strain/Indicator: TA1537, Metabolic Activation: Rat, Liver, S-9, Aroclor 1254 (10%), Method: Preincubation): inactive; negative

Cc1cc2c(cc1N=O)OCO2
mutagenic call [1]: active; positive
mutagenic call (Test System: AMES SALMONELLA TYPHIMURIUM, Strain/Indicator: TA100, Metabolic Activation: RAT, LIVER, S-9, PHENOBARBITAL AND 5,6-BENZOFLAVONE, Method: PREINCUBATION): active; positive

CCCCCCCCCCCCCC(=O)N(OC(C)=O)c1ccc2c(c1)Cc1ccccc1-2
mutagenic call (Test System: UDS HUMAN FIBROBLASTS, Strain/Indicator: THY INCORP (NON-S-PHASE), Metabolic Activation: NONE, Method: AUTORADIOGRAPHY): active; positive

CCSC(C)CC1CC(=O)C(/C(CC)=N/OC/C=C/Cl)=C(O)C1 (configuration not stated)
mutagenic call (End Point: In vitro chromosomal aberrations, Test System: Chinese hamster ovary (CHO) cells, Metabolic Activation: None): inactive; negative (purity 96.1%); also recorded: active; positive (structural changes; purity 81.4%)
mutagenic call (End Point: In vitro chromosomal aberrations, Test System: Chinese hamster ovary (CHO) cells, Metabolic Activation: Rat, liver, S-9, Aroclor 1254): inactive; negative (purity 96.1%)
mutagenic call (End Point: In vivo chromosomal aberrations, Test System: Bone marrow, Species: Rat, Strain/Sex: Sprague-Dawley/Female, Route: Gavage): inactive; negative (purity 83.3%)
mutagenic call (End Point: In vivo chromosomal aberrations, Test System: Bone marrow, Species: Rat, Strain/Sex: Sprague-Dawley/Male, Route: Gavage): inactive; negative (purity 83.3%)
mutagenic call (Test System: Ames Salmonella typhimurium, Strain/Indicator: TA98, Metabolic Activation: None, Method: Standard Plate): inactive; negative (purity 83.3%)
mutagenic call (Test System: Ames Salmonella typhimurium, Strain/Indicator: TA98, Metabolic Activation: Rat, liver, S-9, Aroclor, Method: Standard Plate): inactive; negative (purity 83.3%)
mutagenic call (Test System: Ames Salmonella typhimurium, Strain/Indicator: TA100, Metabolic Activation: None, Method: Standard Plate): inactive; negative (purity 83.3%)
mutagenic call (Test System: Ames Salmonella typhimurium, Strain/Indicator: TA100, Metabolic Activation: Rat, liver, S-9, Aroclor, Method: Standard Plate): inactive; negative (purity 83.3%)
mutagenic call (Test System: Ames Salmonella typhimurium, Strain/Indicator: TA1535, Metabolic Activation: None, Method: Standard Plate): inactive; negative (purity 83.3%)
mutagenic call (Test System: Ames Salmonella typhimurium, Strain/Indicator: TA1535, Metabolic Activation: Rat, liver, S-9, Aroclor, Method: Standard Plate): inactive; negative (purity 83.3%)
mutagenic call (Test System: Ames Salmonella typhimurium, Strain/Indicator: TA1537, Metabolic Activation: None, Method: Standard Plate): inactive; negative (purity 83.3%)
mutagenic call (Test System: Ames Salmonella typhimurium, Strain/Indicator: TA1537, Metabolic Activation: Rat, liver, S-9, Aroclor, Method: Standard Plate): inactive; negative (purity 83.3%)
mutagenic call (Test System: E. coli, Strain/Indicator: WP2uvrA, Metabolic Activation: None, Method: Standard Plate): inactive; negative (purity 83.3%)
mutagenic call (Test System: E. coli, Strain/Indicator: WP2uvrA, Metabolic Activation: Rat, liver, S-9, Aroclor, Method: Standard Plate): inactive; negative (purity 83.3%)
mutagenic call (Test System: UDS Mouse hepatocytes, Strain/Indicator: Thymidine incorporation, Metabolic Activation: Activation in whole animal, Method: Autoradiography): inactive; negative (purity 83.3%)
